Earlier results, collected in patent US20110003005A1, “Methods of Treating PDNV and PONV with Extended Release Ondansetron Compositions” (priority 2009, published 2011).

For `Cc1nccn1CC1CCc2c(c3ccccc3n2C)C1=O` (centres unmarked) [ondansetron], the “effect of ondansetron administered after the 24 h period following surgery” value (Pan et al. 2008) is listed as “efficacy”, the “effect of oral ondansetron administered in the 24 h period after surgery” value (Pan et al. 2008) is listed as “no effect” and the “nausea and vomiting post-discharge, relative to placebo” value (orally administered, Gan et al. 2002) is listed as “did reduce”. The “improving control of nausea and vomiting in the 24 hour period following surgery” value (orally administered, Kovac et al. 1999) was “ineffective” and the “orally administered ondansetron versus placebo, nausea and vomiting” value (over a 24 and 72 h period following surgery, Thagaard et al. 2003) was “no difference”.
